Source: patent US6376430B1, “Enhancement of seed yield of soybeans by a substituted benzoyl urea” (Uniroyal Chemical Company, Inc., priority 1997, dated 2002)

How the values were obtained:
determinate soybeans = assay: Field applications on determinate soybeans (29 site data base), seed yield; format: in vivo, soybean; settings: for determinate soybean yields: Diflubenzuron 0.035 kg/ha, BENLATE 0.56 to 0.84 kg/ha, applied from R2 through R5 growth stages, untreated control 2190 kg/ha; for yield increase over the untreated control: one or two field applications of Diflubenzuron at 0.034 kg ai/ha, 29 sites, determinate soybeans
Source text: In this invention, Diflubenzuron is typically sprayed during the period from R2 through R5 for controlling foliar feeding insects. In the States of Mississippi, Florida, Tennessee, Illinois, Arkansas, Louisiana, and Texas results have been compiled where one or two field applications of Diflubenzuron at 0.034 kg ai/ha (0.031 lb ai/acre) were applied to control insects on the determinate soybeans planted. A fungicide, Benomyl, methyl-1-(butylcarbamoyl)-2-benzamidazolecarbamate [CAS 17804-35-2], available as BENLATE™ from DuPont deNemour, Wilmington, Del., was also applied alone or in combination with Diflubenzuron for fungal pathogen control.

indeterminate soybeans = assay: Field applications on northern indeterminate soybean varieties (25 sites), seed yield, pod counts, seed size; format: in vivo
Source text: Diflubenzuron alone gave a 376 kg/ha (5.6 bu/acre) increase over the untreated control; the addition of Benomyl (methyl-1-(butylcarbamoyl)-2-benzamidazolecarbamate) only conferred another 0.5 bushel increase. There were no reported foliar feeding insect infestations of significance in any of the trials.
This is a similar % increase to the increased seed yields found in Table 3. […] Thus Diflubenzuron may be more consistent than TIBA in generating soybean seed yield increases since Diflubenzuron is not visually altering the carbon fixation pool of the plant.

soybean = settings: cited from earlier work

Compound	determinate soybean yields (determinate soybeans)	yield increase over the untreated control (determinate soybeans)	visual alteration of the soybean plant canopy (indeterminate soybeans; any research trial)	seed size variation across varieties (indeterminate soybeans; no correlation to application time of Diflubenzuron)	pod counts from plants, higher in relation to the untreated control (indeterminate soybeans; preliminary results, indeterminate soybean trials)	total seed number per plant (soybean; literature (Bauer et al., 1969; Burton and Curley, 1966; Hicks et al., 1967))	seed yield (soybean; literature, smaller seeds were formed)
CCCCNC(=O)n1c(NC(=O)OC)nc2ccccc21 [Benomyl, methyl-1-(butylcarbamoyl)-2-benzamidazolecarbamate]	2439 kg/ha	3.7 bushels/acre	–	–	–	–	–
O=C(NC(=O)c1c(F)cccc1F)Nc1ccc(Cl)cc1 [Diflubenzuron, N-(2,6-difluorobenzoyl)-N′-(4-chlorophenyl)urea]	2378 kg/ha	2.8 bushels/acre	has not been noted	~2%	approximately 16%	–	–
O=C(O)c1cc(I)cc(I)c1I [TIBA, 2,3,5-triiodobenzoic acid]	–	–	–	–	–	increase	no corresponding increase
